Test results as given in BindingDB's records for doi:10.1021/jm801322h (Pfizer, 2009).

Biological target: T1, Gag-Pol polyprotein [588-1027] (Human immunodeficiency virus type 1 group M subtype B (isolate HXB2), UniProt P04585)
T1 construct: 588-1027
Assay: Reverse Transcriptase Assay
Details: pH 7.8; 37 °C
Description: The inhibition of the RNA-dependent DNA polymerase activity of the HIV-1 reverse transcriptase enzyme was measured using a primer extension assay. The substrate-incorporated radioactivity was measured using the Topcount NXT with a reading time of 1 minute/well and IC50 were deduced from the dose response curves obtained.

CNCc1n[nH]c2cccc(Oc3cc(C#N)cc(C#N)c3)c12 [5-({3-[(methylamino)methyl]-1H-indazol-4-yl}oxy)benzene-1,3-dicarbonitrile]
IC50: > 30 µM
